According to patent US8309058B2, “Method for obtaining highly luminescent lanthanide complexes” (Commissariat a l'Energie Atomique, priority 2005, dated 2012):
Read-outs that look alike come from different tables or passages of the source.

How the values were obtained:
[1] = potentiometric titration: stability of the Ca(II) complex; format: physicochemical
Protocol: (§1) The solutions of Ca(II) could be prepared by dissolution of CaCI2 in water. The exact concentration of the ion Ca^2+ can be determined by colorimetric titration at a pH 12.5 using as a reference a solution of […] calgonite as an indicator. 20 mL of a solution of […] (3,10-^4 M), acidified (pH 2.5) 1:1 Ln:mixture of ligands ([L] 3.10-^4 M), acidified (pH 2.5) 1:1 Ca:mixture of ligands ([L] 7.10-^5M) are titrated in a cell with a thermostat (25.0° C.+/-0.1° C.) under Argon after addition of a solution of KOH 0.1 M. The ionic load was determined with KCl (μ=00.1 M). The titrations have been conducted with a Metrohm 751 GPD Titrino potentiometer fitted with a glass pH electrode. The electrode system was calibrated before each measurement. The electromotive load is given by the equation E=E°+sp[H^+] wherein E° and s are determined by titration of a known amount de HCl with 0.1 M KOH at μ=0.1 M (KCl), using the zone of the acid for the titration. […] More than 50 data points have been collected for each experiment.

[2] = cited from earlier work
[3] = cited from earlier work; remark: listed apart in the source
[4] = stability of the Gd complex (pGd); format: physicochemical; conditions: pH 7.4, [M]total=1 μM, [ligand]total=10 μM
[5] = potentiometric titration: de-protonation constants of the ligand; format: physicochemical; conditions: 25.0° C., μ=0.1 M KCl, listed as H6tpaen
Description: Besides, five de-protonation constants [pKa1=2.8 (1), pKa22=3.2 (1), pKa3=3.9 (2), pKa4=5.1 (1) and pKa5=7.8 (1)] may be determined for the ligand H6tpaen by potentiometric titration as well the stability constants of the corresponding complexes of Eu^III and of CaII [log βEuL=15.3(3) for the complex of Eu^III and log βCaL=8.5 (5)].
For potentiometric titration, the solutions of the complex of Eu(III) may be prepared by dissolution of a determined amount of EuCI3.6H2O in water. The de-protonation constants of H6tpaen are given by Kai=[H6-iL]^2-1/[H5−iL]^1-i[H]^+, and as already mentioned previously, the values obtained are pKa1=2.8(1), pKa2=3.2(1), pKa3=3.9(2), pKa44=5.1(1) and pKa5=7.8(1).
The solutions of Ca(II) could be prepared by dissolution of CaCI2 in water. The exact concentration of the ion Ca^2+ can be determined by colorimetric titration at a pH 12.5 using as a reference a solution of H2Na2edta and calgonite as an indicator. 20 mL of a solution of H4tpaen (3,10−^4 M), acidified (pH˜2.5) 1:1 Ln:mixture of ligands ([L] 3.10−^4 M), acidified (pH˜2.5) 1:1 Ca:mixture of ligands ([L] 7.10−^5M) are titrated in a cell with a thermostat (25.0° C.+/−0.1° C.) under Argon after addition of a solution of KOH 0.1 M.
The ionic load was determined with KCl (μ=00.1 M). The titrations have been conducted with a Metrohm 751 GPD Titrino potentiometer fitted with a glass pH electrode. The electrode system was calibrated before each measurement.
The electromotive load is given by the equation E=E°+sp[H^+] wherein E° and s are determined by titration of a known amount de HCl with 0.1 M KOH at μ=0.1 M (KCl), using the zone of the acid for the titration. The value used for the ionic product of water was pKw=13.77. More than 50 data points have been collected for each experiment.

[6] = absorption / excitation spectra; format: physicochemical
Description: (full line) and [Tb(tpaen)] (dotted line) after excitation of the ligand at 274 nm.
An efficient energy transfer from the ligand to the metal is put forward by the resemblance between the excitation and absorption spectra of the Europium and Terbium complexes.

[7] = potentiometric titration: stability of the Eu(III) complex; format: physicochemical
Description: as §1, with “For potentiometric titration, the solutions of the complex of Eu(III) may be prepared by dissolution of a determined amount of EuCI3.6H2O in water. […] The exact concentration of the ion Eu^3+ could be determined by colorimetric titration in an acetate buffer (pH=4.5), using as a reference a solution of […] orange xylenol as an indicator. The solutions” for “The solutions”

[8] = pH 7.4, [M]total=1 μM, [ligand]total=10 μM

O=C([O-])c1cccc(CN(CCN(Cc2cccc(C(=O)O)n2)Cc2cccc(C(=O)O)n2)Cc2cccc(C(=O)[O-])n2)n1.[Ca+2] [Catpaen]
stability constant log βCaL ([1]; potentiometric titration, 25.0° C., μ=0.1 M KCl): 8.5 (5)

O=C(O)CN(CCN(CC(=O)O)CC(=O)O)CC(=O)O [EDTA, tetra acetic diamine ethylene acid]
pEu, comparison value for EDTA [2]: 14.0

O=C(O)c1ccccc1C1=c2cc3c4c(c2Oc2c1cc1c5c2CCCN5CCC1)CCC[N+]=4CCC3.[Cl-] [rhodamine 101]
Qabs of the standard ([3]; ethanol): 100%

O=C(O)c1cccc(CN(CCN(Cc2cccc(C(=O)O)n2)Cc2cccc(C(=O)O)n2)Cc2cccc(C(=O)O)n2)n1 [tpaen, N,N,N′,N′-tetrakis[(6-carboxypyridine-2-yle)methyl]-ethylene diamine]
pCa (−log [M]free) [1, 8]: 8.5
pGd (−log [M]free) [4]: 15.0
de-protonation constant pKa1 [5]: 2.8 (1)
de-protonation constant pKa2 [5]: 3.2 (1)
de-protonation constant pKa3 [5]: 3.9 (2)
de-protonation constant pKa4 [5]: 5.1 (1)
de-protonation constant pKa5 [5]: 7.8 (1)
λexc [6]: 270 nm
ε ([6]; at λexc): 15800 M⁻¹ cm⁻¹
selectivity for Europium with respect to calcium ([7]; from pEu versus pCa): good selectivity regarding Europium with respect to calcium
pEu (−log [M]free) [7, 8]: 15.7

cresyl violet
Qabs of the standard ([3]; methanol): 54%
